According to PMC8164609 (Environmental Science and Pollution Research International, 2021):
Where “and” joins values, the source holds several entries; their conditions need not be identical. Equal values may be shown once. Read-outs that look alike come from different tables or passages of the source.

Experiments:
MCF-7 cells [1] = experiment: MCF-7 cell proliferation assay (MTT reduction); type: cell-based, human; conditions: for EC50: Homo sapiens
Experimental: MCF-7 cell line which is sensitive to estrogen (ERα^+) was kindly provided by Dr. Sari Tojkander (Department of Veterinary Biosciences, Faculty of Veterinary Medicine, University of Helsinki). Cells were usually grown in T25 or T75 flasks containing DMEM with or without phenol red and supplemented with 7–10% FBS and 4 mM L-glutamine at 37°C in 5% CO2/95% humidified atmosphere. In order to eliminate the disturbing effect of hormones usually present in FBS, cell culture medium supplemented with commercially available charcoal-stripped FBS and 4 mM L-glutamine (SF medium) was used for experiments.
The effect of EEDCs on the proliferation of MCF-7 cells was assessed as previously described by measuring the capacity of the cells in each well to reduce MTT reagent (Van Meeuwen et al. [2007]). Approximately 5000 cells/200 μL of SF medium containing DMEM without phenol red, 5% charcoal-stripped FBS, and 4 mM L-glutamine were seeded per well in a 96-well cell culture plate. On day 2, cells were treated with the SF medium containing test compounds or vehicle. The final concentration of the solvents DMSO and EtOH was lower than 0.1%. On day 5, the SF medium containing test compounds or vehicle were refreshed. On day 8, cells were washed with PBS twice and then incubated with the SF medium containing 1 mg/mL MTT reagent for 1 h. The ability of MCF-7 cells to reduce MTT was measured at the reference wavelength of 595 nm using a microplate reader (Multiskan Ascent, Thermo Fisher Scientific). All the exposures were in triplicate.
The dose-response curves of test samples were plotted against logarithmic-transformed concentrations.

MCF-7 cells [2] = experiment: In vitro micronucleus assay for cytokinesis block; type: cell-based, human; conditions: 24 h; for Micronuclei per 1000 binucleated cells, Replicates: single replicate values
Experimental: The genotoxicity of EEDCs to MCF-7 cells was assessed by the in vitro micronucleus assay for cytokinesis block. MCF-7 cells were seeded at a density of 5×10^4/well in a 12-well plate in SF medium containing DMEM, 7% charcoal-stripped FBS and 4 mM L-glutamine. These cells were treated with test compounds or the positive control for 24 h. Then, cells were washed twice with PBS, treated with 2 μg/mL cytochalasin B, and incubated for 1.5–2 normal cell cycle lengths (~24 h for MCF-7 cells). Finally, cells were washed with PBS and fixed with 4% paraformaldehyde for 10–15 min (in PBS, pH 6.9). Before staining cells with 5% Giemsa stain for 20 min, plates were washed again with PBS and dried. The frequency of micronuclei per 1000 binucleated cells was counted for each well, and the ratio of micronucleus frequency in treated vs. control cells was defined as fold induction. Cells in mitosis were omitted.

S. cerevisiae BMA64/luc = conditions: values higher than 2 are considered toxic
Experimental: (§1) Yeast bioluminescent assay was performed as previously described (Omoruyi and Pohjanvirta [2018]). Two recombinant yeasts, Saccharomyces cerevisiae BMAEREluc/ERα and Saccharomyces cerevisiae BMA64/luc, were kindly provided by Dr. Johanna Rajasärkkä, Department of Food and Environmental Sciences, Faculty of Agriculture and Forestry, University of Helsinki. In the BMAEREluc/ERα, human ERα is expressed. After estrogen-like chemicals bind to ERα, the dimerized receptor binds to a specific DNA sequence called estrogen response element (ERE), in the promotor region of the luc reporter gene, inducing its expression. In BMA64/luc, the luciferase is expressed constitutively, and this strain can be used for the evaluation of cytotoxicity of test compounds.
Both strains were revived from glycerol stock solution on agar and broth forms of synthetic complete medium supplemented with the required amino acids. After the absence of contamination was confirmed by observing single colonies’ morphology on agar plate, approximately 10 μL of cultured yeasts in broth was transferred to 4 mL of synthetic defined (SD) medium supplemented with the required amino acids. The culture was incubated at 30°C on a shaker incubator (200 rpm). After 24-h incubation, the culture was diluted with SD broth to reach the optimal density (OD600) of 0.4 CFU/mL. Subsequently, the culture was incubated in the same incubation condition until the OD600 reached 0.6–0.7 CFU/mL.
(§2) Next, 90 μL of cultured yeasts containing 1:20 luciferin solution (0.042 g luciferin dissolved in 9.75 mL of 0.2 M trisodium citrate, and 5.525 mL of 0.2 M citrate, pH 5) was pipetted into every well of a white 96-well flat-bottom plate, and 10 μL of test compounds in a defined concentration range (diluted in 5% EtOH) were added. The plate was incubated at 30°C for approximately 2.5 h, and was then shaken briefly. The luminescence measurement was performed with Luminoskan Ascent microplate luminometer (Thermo Labsystems) using the recommended settings as follows: 1000 ms integration time, single measurement mode, shaking at 60 rpm for 5 s prior to measurement.
Each concentration of test compounds and controls in the assay was tested in triplicate, and the experiment was performed twice.
* The Correction Factor is the luminescence of the strain BMA64/luc with blank solvent divided by the luminescence of the control strain with the sample. Values higher than 2 are considered toxic (Leskinen et al. 2005).
* The Correction Factor is the luminescence of the strain BMA64/luc with blank solvent divided by the luminescence of the control strain with the sample. Values higher than 2 are considered toxic (Leskinen et al. 2005). […] Each experiment was performed in triplicate.

MCF-7 cells [3] = experiment: LDH cytotoxicity test; conditions: 24 h, up to 10^−4 M
Experimental: Cytotoxicity was assessed by lactate dehydrogenase (LDH) release. For LDH measurement, Pierce LDH Cytotoxicity Assay Kit (Thermo Scientific, Rockford, USA) was used. MCF-7 cells were seeded at 2.8×10^5 in a transparent 96-well plate, and corner cells of the plate were filled with PBS to prevent the edge effect. SF medium containing DMEM without phenol red, 1% charcoal-stripped FBS, and 4 mM L-glutamine were used for this assay. Plates were incubated for 24 h, and then the cells were treated with test compounds at concentrations ranging from 10^−14 to 10^−4 M or vehicle for another 24 h. On day 3, culture supernatant was collected in a separate 96-well plate, and the assay was continued according to the manufacturer’s instructions. Final absorbance was measured with the microplate reader at 490 and 680 nm. […] Vehicle control was 0.1% EtOH or DMSO. All the exposures were in triplicate, and the experiment was carried out twice.

human ERα = biological target: T1, human ERα (Homo sapiens, UniProt P03372); experiment: Yeast bioluminescent assay, S. cerevisiae BMAEREluc/ERα (ERE-luc reporter); type: cell-based; conditions: negative control, Fig. 1a
T1 construct: expressed in transfected cells; host or cells: Saccharomyces cerevisiae BMAEREluc/ERα (recombinant yeast, gift of Dr. Johanna Rajasärkkä, University of Helsinki)
T1 sequence (P03372 1-595): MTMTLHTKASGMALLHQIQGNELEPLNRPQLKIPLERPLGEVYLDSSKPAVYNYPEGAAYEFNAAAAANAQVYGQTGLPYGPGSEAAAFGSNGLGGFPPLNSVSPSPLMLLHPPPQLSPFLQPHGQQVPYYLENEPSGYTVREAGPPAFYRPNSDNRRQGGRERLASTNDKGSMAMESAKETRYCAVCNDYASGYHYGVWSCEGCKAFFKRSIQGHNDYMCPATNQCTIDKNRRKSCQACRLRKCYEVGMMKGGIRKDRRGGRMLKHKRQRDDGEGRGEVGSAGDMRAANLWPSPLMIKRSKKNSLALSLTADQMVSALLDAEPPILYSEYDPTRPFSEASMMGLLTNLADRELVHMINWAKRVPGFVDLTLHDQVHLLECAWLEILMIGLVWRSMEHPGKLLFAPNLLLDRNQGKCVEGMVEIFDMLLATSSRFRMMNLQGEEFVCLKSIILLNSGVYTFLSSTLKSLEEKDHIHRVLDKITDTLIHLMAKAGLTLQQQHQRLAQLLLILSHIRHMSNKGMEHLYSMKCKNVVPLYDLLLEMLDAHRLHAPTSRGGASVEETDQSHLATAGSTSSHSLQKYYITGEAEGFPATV
Experimental: as §1, with “compounds. […]” for “compounds.”
as §2, with “The plate was incubated at 30°C for approximately 2.5 h, and was then shaken briefly.” left out, “measurement. […]” for “measurement.”

MCF-7 cells [4] = test system: MCF-7 cells; set-up: method as in Blanquer-Rosselló et al. [2013]; conditions: 0.001–20 μM, ref Blanquer-Rosselló et al. [2013]; cited from earlier work
MCF-7 cells [5] = test system: MCF-7 cells; set-up: method as in Lei et al. [2017]; conditions: 10^−4 M, 24-h incubation, LDH leakage; ref Lei et al. [2017]; cited from earlier work
[6] = MCF7, MCF-7 cells, hormone-depleted medium, MTT, read-out: EC50 (proliferative effect)

Row | Structure (SMILES) | EC50 (MCF-7 cells [1]; [6]) | Micronuclei per 1000 binucleated cells, Average (MCF-7 cells [2]; 10^−7 M) | Micronuclei per 1000 binucleated cells, Replicates (MCF-7 cells [2]; 10^−7 M) | Micronuclei per 1000 binucleated cells, Average (MCF-7 cells [2]; 10^−8 M) | Micronuclei per 1000 binucleated cells, Replicates (MCF-7 cells [2]; 10^−8 M) | Correction Factor (S. cerevisiae BMA64/luc; 5% DMSO, 10^−4 M) | Correction Factor (S. cerevisiae BMA64/luc; 5% DMSO, 10^−6 M) | Correction Factor (S. cerevisiae BMA64/luc; 5% DMSO, 10^−8 M) | Correction Factor (S. cerevisiae BMA64/luc; 5% DMSO, 10^−10 M) | Correction Factor (S. cerevisiae BMA64/luc; 5% DMSO, 10^−12 M) | Correction Factor (S. cerevisiae BMA64/luc; 5% DMSO, 10^−14 M) | Correction Factor (S. cerevisiae BMA64/luc; 5% ethanol, 10^−4 M) | Correction Factor (S. cerevisiae BMA64/luc; 5% ethanol, 10^−6 M) | Correction Factor (S. cerevisiae BMA64/luc; 5% ethanol, 10^−8 M) | maximum level of cytotoxicity (LDH release) (MCF-7 cells [3]) | efficacy (maximum induction of cell growth) compared with 17β-estradiol (MCF-7 cells [1]; MCF-7 cells, MTT) | Correction Factor (S. cerevisiae BMA64/luc; 5% ethanol, 10^−10 M) | Correction Factor (S. cerevisiae BMA64/luc; 5% ethanol, 10^−12 M) | Correction Factor (S. cerevisiae BMA64/luc; 5% ethanol, 10^−14 M) | other results
1 | C[C@]12CC[C@@H]3c4ccc(O)cc4CC[C@H]3[C@@H]1CC[C@@H]2O [17β-estradiol] | 0.21 nM | 13.33 per 1000 binucleated cells | 10 per 1000 binucleated cells and 13 per 1000 binucleated cells and 17 per 1000 binucleated cells | 13 per 1000 binucleated cells | 12 per 1000 binucleated cells and 14 per 1000 binucleated cells and 13 per 1000 binucleated cells | 3.23±0.53 | 3.42±0.81 | 2.98±0.42 | 3.11±0.47 | 2.60±0.69 | 2.59±0.23 | 1.12±0.12 | 1.08±0.05 | 1.11±0.06 | less than 2.5% | – | – | – | – | –
2 | CC(=O)[C@H]1CC[C@H]2[C@@H]3CCC4=CC(=O)CC[C@]4(C)[C@H]3CC[C@]12C [progesterone] | – | – | – | – | – | – | – | – | – | – | – | – | – | – | – | – | – | – | – | luciferase activity (estrogenic response) (human ERα): did not produce any detectable luciferase activity
3 | O=c1c(-c2ccc(O)cc2)coc2cc(O)cc(O)c12 [genistein] | – | – | – | – | – | 3.19±0.42 | 2.59±0.95 | 3.59±1.22 | 2.20±0.05 | 2.59±0.45 | 3.88±1.32 | 1.59±0.17 | 1.27±0.42 | 1.18±0.24 | less than 2.5% | about half | 1.07±0.04 | 1.30±0.22 | 1.58±0.23 | EC50 (MCF-7 cells [1]; MCF7, read-out: EC50 (proliferative effect)): 831 nM
4 | CC(C)=CCc1c(O)cc(O)c2c1O[C@H](c1ccc(O)cc1)CC2=O [8-PN, 8-prenylnaringenine] | 4.98 nM | 22.33 per 1000 binucleated cells | 24 per 1000 binucleated cells and 20 per 1000 binucleated cells and 23 per 1000 binucleated cells | 18.67 per 1000 binucleated cells | 16 per 1000 binucleated cells and 19 per 1000 binucleated cells and 21 per 1000 binucleated cells | 3.27±0.64 | 3.31±0.92 | 2.62±0.30 | 2.02±0.15 | 2.32±0.56 | 2.09±0.35 | 1.05±0.21 | 0.94±0.14 | 0.97±0.04 | less than 2.5% | about half | 1.03±0.16 | 0.92±0.14 | 0.98±0.12 | mitochondrial function and ROS production (MCF-7 cells [4]): improved mitochondrial function and decreased ROS production
5 | CC(C)(c1ccc(O)cc1)c1ccc(O)cc1 [BPA, bisphenol A] | – | – | – | – | – | – | – | – | – | – | – | – | – | – | – | – | – | – | – | increase of MCF-7-cell mortality (MCF-7 cells [5]): more than 80%
6 | CC/C(=C(\c1ccccc1)c1ccc(OCCN(C)C)cc1)c1ccccc1 [tamoxifen] | – | – | – | – | – | 2.87±0.04 | 2.30±0.14 | 2.54±0.17 | 2.47±0.30 | 2.51±0.21 | 2.40±0.09 | 1.35±0.25 | 1.21±0.32 | 1.50±0.27 | – | – | 1.28±0.25 | 1.23±0.16 | 1.39±0.31 | dose-response of proliferation (MCF-7 cells [1]; in the presence of 10^−12 M of 17β-estradiol, Fig. 2b): inverse dose-response curve
